What was measured:
[1] = target: T1, Induced myeloid leukemia cell differentiation protein Mcl-1 (Homo sapiens, UniProt Q07820); assay: Displacement of Flu-BID/FAM-BID from His-tagged Mcl-1 (171 to 327 residues) (unknown origin) expressed in Escherichia coli BL21 (DE3) cells incubated for 3 hrs by fluorescence polarization assay
[2] = target: T1, Induced myeloid leukemia cell differentiation protein Mcl-1; assay: Inhibition of biotinylated Bim peptide (81 to 106 residues) binding to His-tagged Mcl-1 (171 to 327 residues) (unknown origin) expressed in Escherichia coli BL21 (DE3) cells preincubated for 1 hr followed by biotinylated Bim peptide addition measured after 2 hrs by ELISA
[3] = target: T1, Induced myeloid leukemia cell differentiation protein Mcl-1; assay: Inhibition of N-terminal biotin-labeled BIM BH3 peptide (141 to 166 residues) binding to His-tagged Mcl-1 (171 to 327 residues) (unknown origin) expressed in Escherichia coli BL21 (DE3) cells incubated for >=30 mins by […]
[4] = Cytotoxicity against human MOLP8 cells after 24 hrs by MTT assay; type: functional, cell-based; details: MOLP-8, 24 h
L-363 = assay: Cytotoxicity against human L-363 cells after 24 hrs by MTT assay; type: functional, cell-based; details: L-363, 24 h
K562 = assay: Cytotoxicity against human K562 cells after 24 hrs by MTT assay; type: functional, cell-based; details: K562, 24 h
NCI-H929 = assay: Cytotoxicity against human NCI-H929 cells after 24 hrs by MTT assay; type: functional, cell-based; details: NCI-H929, 24 h
LP-1 = assay: Cytotoxicity against human LP-1 cells after 24 hrs by MTT assay; type: functional, cell-based; details: LP-1, 24 h
MM1.S = assay: Cytotoxicity against human MM1.S cells after 24 hrs by MTT assay; type: functional, cell-based
KMS-12-PE = assay: Cytotoxicity against human KMS-12-PE cells after 24 hrs by MTT assay; type: functional, cell-based

T1 sequence (Q07820 whole entry, the tested form may be a part): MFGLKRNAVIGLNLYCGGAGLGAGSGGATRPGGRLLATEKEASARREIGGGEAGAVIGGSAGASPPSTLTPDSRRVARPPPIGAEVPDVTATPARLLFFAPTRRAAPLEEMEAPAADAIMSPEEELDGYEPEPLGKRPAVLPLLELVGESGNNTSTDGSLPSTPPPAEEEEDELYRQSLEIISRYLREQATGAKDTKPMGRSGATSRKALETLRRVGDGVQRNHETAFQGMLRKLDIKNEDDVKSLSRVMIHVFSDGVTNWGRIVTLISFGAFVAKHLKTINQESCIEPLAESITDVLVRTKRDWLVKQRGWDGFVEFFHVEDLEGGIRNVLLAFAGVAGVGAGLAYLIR

Q: With `Fc1ccc(Cn2c3ccccc3c3ccnc(-c4ccccn4)c32)cc1` as the compound, how does the Ki [1] read?
A: 5.52 µM

Q: What about the IC50 [2] of the same compound?
A: > 10 µM

Q: And the IC50 [3]?
A: > 10 µM

Q: What about the IC50 [4] of the same compound?
A: 34.7 µM

Q: What about the IC50 (L-363) of the same compound?
A: > 40 µM

Q: And the IC50 (K562)?
A: 28.9 µM

Q: What about the IC50 (NCI-H929) of the same compound?
A: 25.4 µM

Q: And the IC50 (LP-1)?
A: 33.6 µM

Q: What about the IC50 (MM1.S) of the same compound?
A: > 40 µM

Q: What about the IC50 (KMS-12-PE) of the same compound?
A: > 40 µM

Q: What does the source list for `c1ccc(Cn2c3ccccc3c3ccnc(-c4ccccn4)c32)cc1`?
A: Ki [1]: 6.13 µM; IC50 [2]: > 10 µM; IC50 [3]: > 10 µM; IC50 [4]: > 40 µM; IC50 (L-363): > 40 µM; IC50 (K562): 32.8 µM; IC50 (NCI-H929): 37.4 µM; IC50 (LP-1): > 40 µM; IC50 (MM1.S): > 40 µM; IC50 (KMS-12-PE): > 40 µM

Q: For `c1ccc(-c2nccc3c4ccccc4n(CC4CC4)c23)nc1`, which Ki [1] is on record?
A: > 10 µM

Q: And the IC50 [2]?
A: > 10 µM

Q: And the IC50 [3]?
A: > 10 µM

Q: And the IC50 [4]?
A: > 40 µM

Q: What about the IC50 (L-363) of the same compound?
A: > 40 µM

Q: And the IC50 (K562)?
A: > 40 µM

Q: What about the IC50 (NCI-H929) of the same compound?
A: > 40 µM

Q: What about the IC50 (LP-1) of the same compound?
A: > 40 µM

Q: And the IC50 (MM1.S)?
A: > 40 µM

Q: What about the IC50 (KMS-12-PE) of the same compound?
A: > 40 µM

Q: Which Ki [1] does the source give for `CCOCCn1c2ccccc2c2ccnc(-c3ccccn3)c21` here?
A: > 10 µM

Q: And the IC50 [2]?
A: > 10 µM

Q: What about the IC50 [3] of the same compound?
A: > 10 µM

Q: What about the IC50 [4] of the same compound?
A: > 40 µM

Q: And the IC50 (L-363)?
A: > 40 µM

Q: What about the IC50 (K562) of the same compound?
A: > 40 µM

Q: And the IC50 (NCI-H929)?
A: > 40 µM

Q: What about the IC50 (LP-1) of the same compound?
A: > 40 µM

Q: What about the IC50 (MM1.S) of the same compound?
A: > 40 µM

Q: What about the IC50 (KMS-12-PE) of the same compound?
A: > 40 µM

Q: What does the source list for `c1ccc(COCCn2c3ccccc3c3ccnc(-c4ccccn4)c32)cc1`?
A: Ki [1]: 7.88 µM; IC50 [2]: > 10 µM; IC50 [3]: > 10 µM; IC50 [4]: > 40 µM; IC50 (L-363): > 40 µM; IC50 (K562): > 40 µM; IC50 (NCI-H929): > 40 µM; IC50 (LP-1): > 40 µM; IC50 (MM1.S): > 40 µM; IC50 (KMS-12-PE): > 40 µM

Q: Which Ki [1] does the source give for `CCn1c2ccccc2c2ccnc(-c3ccccn3)c21` here?
A: > 10 µM

Q: And the IC50 [2]?
A: > 10 µM

Q: And the IC50 [3]?
A: > 10 µM

Q: And the IC50 [4]?
A: > 40 µM

Q: And the IC50 (L-363)?
A: > 40 µM

Q: What about the IC50 (K562) of the same compound?
A: > 40 µM

Q: What about the IC50 (NCI-H929) of the same compound?
A: > 40 µM

Q: What about the IC50 (LP-1) of the same compound?
A: > 40 µM

Q: And the IC50 (MM1.S)?
A: > 40 µM

Q: What about the IC50 (KMS-12-PE) of the same compound?
A: > 40 µM

Q: Which Ki [1] does the source give for `c1ccc(-c2nccc3c2[nH]c2ccccc23)nc1` here?
A: > 10 µM

Q: And the IC50 [2]?
A: > 10 µM

Q: What about the IC50 [3] of the same compound?
A: > 10 µM

Q: And the IC50 [4]?
A: > 40 µM

Q: And the IC50 (L-363)?
A: > 40 µM

Q: And the IC50 (K562)?
A: > 40 µM

Q: And the IC50 (NCI-H929)?
A: > 40 µM

Q: What about the IC50 (LP-1) of the same compound?
A: > 40 µM

Q: And the IC50 (MM1.S)?
A: > 40 µM

Q: What about the IC50 (KMS-12-PE) of the same compound?
A: > 40 µM

Q: For `c1ccc(-c2nccc3c4ccccc4n(Cc4ccc5ccccc5c4)c23)nc1`, which Ki [1] is on record?
A: 6.61 µM

Q: What about the IC50 [2] of the same compound?
A: > 10 µM

Q: What about the IC50 [3] of the same compound?
A: 8.52 µM

Q: And the IC50 [4]?
A: > 40 µM

Q: And the IC50 (L-363)?
A: > 40 µM

Q: And the IC50 (K562)?
A: > 40 µM

Q: And the IC50 (NCI-H929)?
A: > 40 µM

Q: And the IC50 (LP-1)?
A: > 40 µM

Q: What about the IC50 (MM1.S) of the same compound?
A: > 40 µM

Q: What about the IC50 (KMS-12-PE) of the same compound?
A: > 40 µM

Q: For `Cc1ccc(Cn2c3ccccc3c3ccnc(-c4ccccn4)c32)cc1`, which Ki [1] is on record?
A: 4.93 µM

Q: And the IC50 [2]?
A: > 10 µM

Q: And the IC50 [3]?
A: 9.08 µM

Q: And the IC50 [4]?
A: 27.5 µM

Q: What about the IC50 (L-363) of the same compound?
A: 33.5 µM

Q: What about the IC50 (K562) of the same compound?
A: 22.6 µM

Q: What about the IC50 (NCI-H929) of the same compound?
A: 17.9 µM

Q: What about the IC50 (LP-1) of the same compound?
A: 25.8 µM

Q: What about the IC50 (MM1.S) of the same compound?
A: > 40 µM

Q: What about the IC50 (KMS-12-PE) of the same compound?
A: > 40 µM

Q: For `c1ccc(CCn2c3ccccc3c3ccnc(-c4ccccn4)c32)cc1`, which Ki [1] is on record?
A: 3.13 µM

Q: And the IC50 [2]?
A: > 10 µM

Q: And the IC50 [3]?
A: 8.81 µM

Q: And the IC50 [4]?
A: 21.4 µM

Q: What about the IC50 (L-363) of the same compound?
A: 24.9 µM

Q: What about the IC50 (K562) of the same compound?
A: 17.9 µM

Q: What about the IC50 (NCI-H929) of the same compound?
A: 14.3 µM

Q: What about the IC50 (LP-1) of the same compound?
A: 18.8 µM

Q: And the IC50 (MM1.S)?
A: > 40 µM

Q: And the IC50 (KMS-12-PE)?
A: > 40 µM

Q: With `Cc1nn(C)c(COc2ccc(N3CCN(S(=O)(=O)N(C)C)CC3)cc2)c1-c1cccc2c(CCCOc3cccc4ccccc34)c(C(=O)O)n(CCN3CCOCC3)c12` as the compound, how does the Ki [1] read?
A: 0.0047 µM

Q: And the IC50 [2]?
A: 0.0125 µM

Q: What about the IC50 [3] of the same compound?
A: 0.0088 µM

Q: What about the IC50 [4] of the same compound?
A: 9.7 µM

Q: And the IC50 (L-363)?
A: 11.8 µM

Q: And the IC50 (K562)?
A: 13.9 µM

Q: And the IC50 (NCI-H929)?
A: 8.6 µM

Q: What about the IC50 (LP-1) of the same compound?
A: 10.6 µM

Q: And the IC50 (MM1.S)?
A: > 40 µM

Q: What about the IC50 (KMS-12-PE) of the same compound?
A: > 40 µM

Q: What does the source list for `c1ccc(OCCn2c3ccccc3c3ccnc(-c4ccccn4)c32)cc1`?
A: Ki [1]: > 10 µM; IC50 [2]: > 10 µM; IC50 [3]: > 10 µM; IC50 [4]: > 40 µM; IC50 (L-363): > 40 µM; IC50 (K562): > 40 µM; IC50 (NCI-H929): > 40 µM; IC50 (LP-1): > 40 µM; IC50 (MM1.S): > 40 µM; IC50 (KMS-12-PE): > 40 µM

Reference: ChEMBL document CHEMBL4725364, “Discovery of a Copper-Based Mcl-1 Inhibitor as an Effective Antitumor Agent” (J Med Chem, 2020)
